Source: paper PMC10035947, “Development of novel anilinoquinazoline-based carboxylic acids as non-classical carbonic anhydrase IX and XII inhibitors” (Journal of Enzyme Inhibition and Medicinal Chemistry, 2023)
pKi: −log10 of the molar value.

Columns and labels:
hCA II = biological target: T1, hCA II (Homo sapiens, UniProt P00918); experiment: stopped flow CO2 hydrase assay; assay type: biochemical; details: mean from 3 assays
T1 construct: made in house
Experimental: Carbonic anhydrase inhibition assay
The carbonic anhydrase catalyzed CO2 hydration actions for the quinazoline-based carboxylic acid derivatives (6a-c, 7a-c and 8a-c) were assayed utilizing an instrument of Applied Photophysics stopped-flow, as described previously. The enzymes are recombinant proteins prepared in our lab. Phenol red (at a concentration of 0.2 mM) has been used as indicator, working at the absorbance maximum of 557 nm, with 20 mM Hepes (pH 7.5) as buffer, and 20 mM Na2SO4 (for maintaining constant the ionic strength), following the initial rates of the CA- […]
1.7 to 17 mM for the determination of the kinetic parameters and inhibition constants. For each inhibitor at least six traces of the initial 5-10% of the reaction have been used for determining the initial velocity. The uncatalyzed rates were determined in the same manner and subtracted from the total observed rates. Stock solutions of inhibitor (0.1 mM) were prepared in distilled-deionized water and dilutions up to 0.01 nM were done thereafter with the assay buffer. Inhibitor and enzyme solutions were preincubated together for 15 min at room temperature prior to assay, in order to allow for the formation of the E-I complex. The inhibition constants were obtained by non-linear least-squares methods using PRISM 3 and the Cheng-Prusoff equation, and represent the mean from at least three different determinations.

CCRF-CEM = experiment: NCI SRB assay; assay type: cell-based, human
HL-60(TB) = experiment: NCI SRB assay; assay type: cell-based, human; details: HL-60(TB)
K-562 = experiment: NCI SRB assay; assay type: cell-based, human
HOP-62 = experiment: NCI SRB assay; assay type: cell-based, human
HOP-92 = experiment: NCI SRB assay; assay type: cell-based, human
NCI-H23 = experiment: NCI SRB assay; assay type: cell-based, human
NCI-H322M = experiment: NCI SRB assay; assay type: cell-based, human
NCI-H522 = experiment: NCI SRB assay; assay type: cell-based, human
HCT-116 = experiment: NCI SRB assay; assay type: cell-based, human
SF-268 = experiment: NCI SRB assay; assay type: cell-based, human; details: SF-268, 1.00E-5 Molar
SF-295 = experiment: NCI SRB assay; assay type: cell-based, human
SNB-19 = experiment: NCI SRB assay; assay type: cell-based, human
SNB-75 = experiment: NCI SRB assay; assay type: cell-based, human
M14 = experiment: NCI SRB assay; assay type: cell-based, human
SK-MEL-5 = experiment: NCI SRB assay; assay type: cell-based, human
OVCAR-8 = experiment: NCI SRB assay; assay type: cell-based, human
A498 = experiment: NCI SRB assay; assay type: cell-based, human
CAKI-1 = experiment: NCI SRB assay; assay type: cell-based, human
SN12C = experiment: NCI SRB assay; assay type: cell-based, human; details: SN12C
TK-10 = experiment: NCI SRB assay; assay type: cell-based, human
PC-3 = experiment: NCI SRB assay; assay type: cell-based, human
DU-145 = experiment: NCI SRB assay; assay type: cell-based, human
MCF7 = experiment: NCI SRB assay; assay type: cell-based, human
MDA-MB-468 = experiment: NCI SRB assay; assay type: cell-based, human
[1] = system: 59 human cancer cell lines representing nine tumour subpanels; experiment: NCI SRB assay, panel and subpanel summaries; details: all cell lines

SMILES: Cc1cccc(-c2nc(Nc3ccccc3C(=O)O)c3ccccc3n2)c1 [6a, 2-((2-(m-Tolyl)quinazolin-4-yl)amino)benzoic acid]
- pKi (hCA II): 4.07
- GI% (CCRF-CEM; 10 μM): 82%
- Growth Percent (CCRF-CEM; 1.00E-5 Molar): 17.83%
- GI% (HL-60(TB); 10 μM): 60%
- Growth Percent (HL-60(TB); 1.00E-5 Molar): 39.37%
- GI% (K-562; K-562, 10 μM): 71%
- Growth Percent (K-562; K-562, 1.00E-5 Molar): 28.68%
- GI% (HOP-62; HOP-62, 10 μM): 54%
- Growth Percent (HOP-62; HOP-62, 1.00E-5 Molar): 46.18%
- GI% (HOP-92; HOP-92, 10 μM): 105%
- Growth Percent (HOP-92; HOP-92, 1.00E-5 Molar): -5.02%
- GI% (NCI-H23; NCI-H23, 10 μM): 79%
- Growth Percent (NCI-H23; NCI-H23, 1.00E-5 Molar): 20.79%
- GI% (NCI-H322M; 10 μM): 52%
- Growth Percent (NCI-H322M; 1.00E-5 Molar): 48.74%
- GI% (NCI-H522; NCI-H522, 10 μM): 40%
- Growth Percent (NCI-H522; NCI-H522, 1.00E-5 Molar): 59.94%
- GI% (HCT-116; HCT-116, 10 μM): 78%
- Growth Percent (HCT-116; HCT-116, 1.00E-5 Molar): 22.67%
- Growth Percent (SF-268): 37.50%
- GI% (SF-295; SF-295, 10 μM): 73%
- Growth Percent (SF-295; SF-295, 1.00E-5 Molar): 27.07%
- GI% (SNB-19; SNB-19, 10 μM): 79%
- Growth Percent (SNB-19; SNB-19, 1.00E-5 Molar): 21.25%
- GI% (SNB-75; SNB-75, 10 μM): 45%
- Growth Percent (SNB-75; SNB-75, 1.00E-5 Molar): 55.27%
- GI% (M14; M14, 10 μM): 75%
- Growth Percent (M14; M14, 1.00E-5 Molar): 25.25%
- GI% (SK-MEL-5; SK-MEL-5, 10 μM): 94%
- Growth Percent (SK-MEL-5; SK-MEL-5, 1.00E-5 Molar): 6.01%
- GI% (OVCAR-8; OVCAR-8, 10 μM): 40%
- Growth Percent (OVCAR-8; OVCAR-8, 1.00E-5 Molar): 60.34%
- GI% (A498; A498, 10 μM): 52%
- Growth Percent (A498; A498, 1.00E-5 Molar): 47.56%
- GI% (CAKI-1; CAKI-1, 10 μM): 48%
- Growth Percent (CAKI-1; CAKI-1, 1.00E-5 Molar): 52.39%
- GI% (SN12C; 10 μM): 59%
- Growth Percent (SN12C; 1.00E-5 Molar): 40.74%
- GI% (TK-10; TK-10, 10 μM): – (Only GI% higher than 20% are shown)
- Growth Percent (TK-10; TK-10, 1.00E-5 Molar): 85.85%
- GI% (PC-3; PC-3, 10 μM): 71%
- Growth Percent (PC-3; PC-3, 1.00E-5 Molar): 29.47%
- GI% (DU-145; DU-145, 10 μM): 50%
- Growth Percent (DU-145; DU-145, 1.00E-5 Molar): 50.47%
- GI% (MCF7; MCF7, 10 μM): 76%
- Growth Percent (MCF7; MCF7, 1.00E-5 Molar): 23.97%
- GI% (MDA-MB-468; MDA-MB-468, 10 μM): 115%
- Growth Percent (MDA-MB-468; MDA-MB-468, 1.00E-5 Molar): -15.06%
- Mean GI % ([1]; 10 μM): 63%
- Mean Growth Percent ([1]; 1.00E-5 Molar): 37.30%
